ChEMBL document CHEMBL5331073, “Discovery of novel 7,7-dimethyl-6,7-dihydro-5H-pyrrolo[3,4-d]pyrimidines as ATR inhibitors based on structure-based drug design” (Eur J Med Chem, 2023)

What was measured:
LoVo [1] = experiment: Antiproliferative activity against ATM-deficient human LoVo cells assessed as reduction in cell proliferation at 0.2 uM incubated for 3 days by MTT assay; assay type: functional; parameters: scale not given: the % may be the effect or the level left; conditions: time 3 day
[2] = target: T1, Serine/threonine-protein kinase ATR (Homo sapiens, UniProt Q13535); experiment: Inhibition of ATR (unknown origin) using peptide as substrate preincubated for 10 mins followed by substrate addition by microplate reader analysis
Target sequence in this assay (Q13535 whole entry): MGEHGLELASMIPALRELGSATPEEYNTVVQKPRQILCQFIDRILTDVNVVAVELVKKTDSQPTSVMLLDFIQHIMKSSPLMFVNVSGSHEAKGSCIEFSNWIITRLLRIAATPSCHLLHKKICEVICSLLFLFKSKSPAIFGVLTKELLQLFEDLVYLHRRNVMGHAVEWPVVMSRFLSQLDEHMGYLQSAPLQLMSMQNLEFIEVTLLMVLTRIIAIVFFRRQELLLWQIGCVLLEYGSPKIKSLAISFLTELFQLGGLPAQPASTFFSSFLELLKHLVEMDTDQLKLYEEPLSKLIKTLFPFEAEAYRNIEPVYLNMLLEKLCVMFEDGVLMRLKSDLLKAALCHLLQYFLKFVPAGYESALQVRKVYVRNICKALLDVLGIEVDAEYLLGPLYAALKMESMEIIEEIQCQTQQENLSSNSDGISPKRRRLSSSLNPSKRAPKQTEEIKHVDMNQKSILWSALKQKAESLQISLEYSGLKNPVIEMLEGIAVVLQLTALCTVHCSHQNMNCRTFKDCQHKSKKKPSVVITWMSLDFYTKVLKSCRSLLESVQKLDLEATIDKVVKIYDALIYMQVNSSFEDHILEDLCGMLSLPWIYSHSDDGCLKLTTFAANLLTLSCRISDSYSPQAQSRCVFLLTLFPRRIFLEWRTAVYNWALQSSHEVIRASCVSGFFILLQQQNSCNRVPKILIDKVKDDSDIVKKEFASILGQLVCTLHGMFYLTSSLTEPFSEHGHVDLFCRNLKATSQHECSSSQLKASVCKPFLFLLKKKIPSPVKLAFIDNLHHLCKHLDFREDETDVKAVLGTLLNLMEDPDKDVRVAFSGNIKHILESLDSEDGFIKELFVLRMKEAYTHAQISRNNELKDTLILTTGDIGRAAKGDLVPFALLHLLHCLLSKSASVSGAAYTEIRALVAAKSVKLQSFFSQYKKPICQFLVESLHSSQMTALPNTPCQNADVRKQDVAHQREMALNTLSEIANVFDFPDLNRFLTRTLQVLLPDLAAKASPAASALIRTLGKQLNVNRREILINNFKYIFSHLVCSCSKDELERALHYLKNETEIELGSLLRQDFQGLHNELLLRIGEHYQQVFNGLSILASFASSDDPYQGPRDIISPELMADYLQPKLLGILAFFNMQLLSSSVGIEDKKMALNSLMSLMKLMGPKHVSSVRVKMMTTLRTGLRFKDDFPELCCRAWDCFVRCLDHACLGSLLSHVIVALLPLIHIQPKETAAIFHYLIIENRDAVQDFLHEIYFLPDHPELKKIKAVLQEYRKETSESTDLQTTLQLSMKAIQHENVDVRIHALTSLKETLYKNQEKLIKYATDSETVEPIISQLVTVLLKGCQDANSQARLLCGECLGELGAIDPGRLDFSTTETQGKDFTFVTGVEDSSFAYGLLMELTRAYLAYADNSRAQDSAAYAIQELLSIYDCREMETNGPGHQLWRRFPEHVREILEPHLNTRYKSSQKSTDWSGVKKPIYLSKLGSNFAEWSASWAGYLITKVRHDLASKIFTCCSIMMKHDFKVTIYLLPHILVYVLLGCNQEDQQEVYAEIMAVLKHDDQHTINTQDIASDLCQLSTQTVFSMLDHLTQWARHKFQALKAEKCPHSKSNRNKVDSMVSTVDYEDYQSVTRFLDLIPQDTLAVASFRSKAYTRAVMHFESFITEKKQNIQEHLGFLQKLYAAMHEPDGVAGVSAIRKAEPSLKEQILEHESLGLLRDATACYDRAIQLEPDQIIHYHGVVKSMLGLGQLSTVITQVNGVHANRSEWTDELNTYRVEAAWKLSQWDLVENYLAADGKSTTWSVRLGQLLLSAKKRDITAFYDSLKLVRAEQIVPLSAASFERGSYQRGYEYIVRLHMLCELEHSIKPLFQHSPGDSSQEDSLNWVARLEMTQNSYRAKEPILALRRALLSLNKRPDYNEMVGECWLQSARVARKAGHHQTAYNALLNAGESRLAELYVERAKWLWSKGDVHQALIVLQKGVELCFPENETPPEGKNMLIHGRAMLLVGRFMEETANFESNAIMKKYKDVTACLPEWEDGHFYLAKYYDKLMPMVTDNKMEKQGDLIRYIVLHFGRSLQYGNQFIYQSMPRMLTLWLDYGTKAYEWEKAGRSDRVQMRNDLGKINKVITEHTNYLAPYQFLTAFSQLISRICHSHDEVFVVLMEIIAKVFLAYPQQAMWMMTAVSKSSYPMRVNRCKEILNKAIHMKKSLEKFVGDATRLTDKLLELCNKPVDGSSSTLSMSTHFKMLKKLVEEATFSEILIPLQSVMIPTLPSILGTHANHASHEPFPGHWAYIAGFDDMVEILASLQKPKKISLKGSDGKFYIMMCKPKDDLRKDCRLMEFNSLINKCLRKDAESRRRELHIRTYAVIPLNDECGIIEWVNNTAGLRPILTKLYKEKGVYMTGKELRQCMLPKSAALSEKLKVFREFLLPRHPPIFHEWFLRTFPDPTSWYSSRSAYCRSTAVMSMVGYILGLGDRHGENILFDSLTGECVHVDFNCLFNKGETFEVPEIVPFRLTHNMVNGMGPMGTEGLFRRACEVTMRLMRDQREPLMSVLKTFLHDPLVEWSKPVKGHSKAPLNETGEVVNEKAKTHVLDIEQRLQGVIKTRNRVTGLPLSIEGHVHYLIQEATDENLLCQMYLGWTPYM

LoVo [3] = experiment: Antiproliferative activity against ATM-deficient human LoVo cells assessed as reduction in cell proliferation incubated for 3 days by MTT assay; assay type: functional, cell-based; conditions: 72 h
in vitro [4] = conditions: human, liver microsomes
in vitro [5] = conditions: rat, liver microsomes
in vitro [6] = conditions: human, liver microsomes; remark: listed apart in the source
in vitro [7] = conditions: rat, liver microsomes; remark: listed apart in the source
HT-29 = experiment: Antiproliferative activity against ATM-proficient human HT-29 cells assessed as reduction in cell proliferation incubated for 3 days by MTT assay; assay type: functional, cell-based; conditions: HT-29, 72 h
in vitro [8] = conditions: human, liver microsomes; remark: listed apart in the source
in vitro [9] = conditions: rat, liver microsomes; remark: listed apart in the source
[10] = target: T1, Serine/threonine-protein kinase ATR; experiment: Inhibition of ATR (unknown origin) using peptide as substrate at 0.1 uM preincubated for 10 mins followed by substrate addition by microplate reader analysis
Target sequence in this assay (Q13535 whole entry, looked up): as the sequence (Q13535 whole entry) above

[11] = Cmax in Sprague-Dawley rat at 5 mg/kg, po and measured upto 24 hrs by LC-MS analysis; assay type: ADME, organism-based; parameters: time < 24 hrs, dose 5 mg/kg, route po; conditions: in vivo
[12] = MRT (0 to infinity) in Sprague-Dawley rat at 5 mg/kg, po and measured upto 24 hrs by LC-MS analysis; assay type: ADME, organism-based; conditions: in vivo
[13] = Half life in Sprague-Dawley rat at 1 mg/kg, iv and measured upto 24 hrs by LC-MS analysis; assay type: ADME, organism-based; conditions: in vivo
[14] = MRT(t) in Sprague-Dawley rat at 1 mg/kg, iv and measured upto 24 hrs by LC-MS analysis; assay type: ADME, organism-based; conditions: in vivo
[15] = AUCt in Sprague-Dawley rat at 1 mg/kg, iv and measured upto 24 hrs by LC-MS analysis; assay type: ADME, organism-based; parameters: dose 1 mg/kg, time < 24 hrs, route iv; conditions: in vivo
[16] = MRT (0 to infinity) in Sprague-Dawley rat at 1 mg/kg, iv and measured upto 24 hrs by LC-MS analysis; assay type: ADME, organism-based; conditions: in vivo
[17] = AUCt in Sprague-Dawley rat at 5 mg/kg, po and measured upto 24 hrs by LC-MS analysis; assay type: ADME, organism-based; parameters: time < 24 hrs, dose 5 mg/kg, route po; conditions: in vivo
[18] = Tmax in Sprague-Dawley rat at 5 mg/kg, po and measured upto 24 hrs by LC-MS analysis; assay type: ADME, organism-based; conditions: in vivo
[19] = AUC (0 to infinity) in Sprague-Dawley rat at 5 mg/kg, po and measured upto 24 hrs by LC-MS analysis; assay type: ADME, organism-based; parameters: time < 24 hrs, dose 5 mg/kg, route po; conditions: in vivo
[20] = Oral bioavailability in Sprague-Dawley rat at 5 mg/kg and measured upto 24 hrs by LC-MS analysis; assay type: ADME, organism-based; conditions: in vivo
[21] = Volume of distribution at steady state in Sprague-Dawley rat at 1 mg/kg, iv and measured upto 24 hrs by LC-MS analysis; assay type: ADME, organism-based; conditions: in vivo, read-out: Vdss
[22] = MRT(t) in Sprague-Dawley rat at 5 mg/kg, po and measured upto 24 hrs by LC-MS analysis; assay type: ADME, organism-based; conditions: in vivo
[23] = Half life in Sprague-Dawley rat at 5 mg/kg, po and measured upto 24 hrs by LC-MS analysis; assay type: ADME, organism-based; conditions: in vivo
[24] = AUC(0 to infinity) in Sprague-Dawley rat at 1 mg/kg, iv and measured upto 24 hrs by LC-MS analysis; assay type: ADME, organism-based; parameters: time < 24 hrs, dose 1 mg/kg, route iv; conditions: in vivo
[25] = Clearance in Sprague-Dawley rat at 1 mg/kg, iv and measured upto 24 hrs by LC-MS analysis; assay type: ADME, organism-based; conditions: in vivo

CC(=O)N1Cc2c(N3CCOC[C@H]3C)nc(-c3cccc4[nH]ccc34)nc2C1(C)C
Activity (LoVo [1]): <45%
IC50 [2]: 2 nM

C[C@@H]1COCCN1c1nc(-c2cccc3[nH]ccc23)nc2c1CCN(C(=O)c1cccc(F)c1)C2(C)C
IC50 (LoVo [3]): 964 nM
half-life at 1 h, 1 µM (in vitro [4]): 0.129 h
microsomal CLint at 1 h, 1 µM (in vitro [5]): 59.6 µL/min/mg
CLint scaled at 1 h, 1 µM (in vitro [6]): 169 mL/min/kg
half-life at 1 h, 1 µM (in vitro [7]): 0.39 h
IC50 [2]: 14 nM
IC50 (HT-29): 2580 nM
microsomal CLint at 1 h, 1 µM (in vitro [8]): 179 µL/min/mg
CLint scaled at 1 h, 1 µM (in vitro [9]): 107 mL/min/kg

CCC(=O)N1Cc2c(N3CCOC[C@H]3C)nc(-c3cccc4[nH]ccc34)nc2C1(C)C
Activity (LoVo [1]): <45%
IC50 [2]: 2 nM

C[C@@H]1COCCN1c1nc(-c2cccc3[nH]ccc23)nc2c1CCN(Cc1ccccc1)C2(C)C
inhibition [10]: 14.6%

C[C@@H]1COCCN1c1nc(-c2cccc3[nH]ccc23)nc2c1CCN(C(=O)c1ccccc1)C2(C)C
IC50 (LoVo [3]): 574 nM
half-life at 1 h, 1 µM (in vitro [4]): 0.408 h
microsomal CLint at 1 h, 1 µM (in vitro [5]): 36.4 µL/min/mg
CLint scaled at 1 h, 1 µM (in vitro [6]): 53.7 mL/min/kg
half-life at 1 h, 1 µM (in vitro [7]): 0.637 h
IC50 [2]: 9 nM
IC50 (HT-29): 1640 nM
microsomal CLint at 1 h, 1 µM (in vitro [8]): 56.8 µL/min/mg
CLint scaled at 1 h, 1 µM (in vitro [9]): 65.5 mL/min/kg

COc1cccc(C(=O)N2Cc3c(N4CCOC[C@H]4C)nc(-c4cccc5[nH]ccc45)nc3C2(C)C)c1
Cmax [11]: 86.2 ng/mL
IC50 (LoVo [3]): 151 nM
MRT inf [12]: 3.08 h
half-life [13]: 1.28 h
half-life at 1 h, 1 µM (in vitro [4]): 0.447 h
microsomal CLint at 1 h, 1 µM (in vitro [5]): 20.1 µL/min/mg
CLint scaled at 1 h, 1 µM (in vitro [6]): 48.8 mL/min/kg
MRT last at 24 h [14]: 1.02 h
AUC(0-t) at 24 h [15]: 835 ng·h/mL
half-life at 1 h, 1 µM (in vitro [7]): 1.17 h
MRT inf [16]: 1.08 h
AUC(0-t) at 24 h [17]: 323 ng·h/mL
Tmax [18]: 0.667 h
IC50 [2]: 4 nM
AUC(0-inf) [19]: 342 ng·h/mL
bioavailability [20]: 8.1%
Vd [21]: 1.3 L/kg
IC50 (HT-29): 357 nM
MRT last at 24 h [22]: 2.7 h
half-life [23]: 1.87 h
AUC(0-inf) [24]: 840 ng·h/mL
clearance [25]: 20.1 mL/min/kg
microsomal CLint at 1 h, 1 µM (in vitro [8]): 51.6 µL/min/mg
CLint scaled at 1 h, 1 µM (in vitro [9]): 36.2 mL/min/kg

C[C@@H]1COCCN1c1nc(-c2cccc3[nH]ccc23)nc2c1CN(C(=O)C1CCC1)C2(C)C
Activity (LoVo [1]): <45%
IC50 [2]: 7 nM

C[C@@H]1COCCN1c1nc(-c2cccc3[nH]ccc23)nc2c1CN(C(=O)C1CC1)C2(C)C
Activity (LoVo [1]): <45%
IC50 [2]: 8 nM

C[C@@H]1COCCN1c1nc(-c2cccc3[nH]ccc23)nc2c1CCNC2(C)C
inhibition [10]: 70.7%

COc1ccc(C(=O)N2Cc3c(N4CCOC[C@H]4C)nc(-c4cccc5[nH]ccc45)nc3C2(C)C)cc1
Cmax [11]: 83.1 ng/mL
IC50 (LoVo [3]): 128 nM
MRT inf [12]: 11.3 h
half-life [13]: 3.02 h
half-life at 1 h, 1 µM (in vitro [4]): 0.158 h
microsomal CLint at 1 h, 1 µM (in vitro [5]): 76.6 µL/min/mg
CLint scaled at 1 h, 1 µM (in vitro [6]): 139 mL/min/kg
MRT last at 24 h [14]: 2.99 h
AUC(0-t) at 24 h [15]: 1440 ng·h/mL
half-life at 1 h, 1 µM (in vitro [7]): 0.302 h
MRT inf [16]: 3.3 h
AUC(0-t) at 24 h [17]: 452 ng·h/mL
Tmax [18]: 1 h
IC50 [2]: 3 nM
AUC(0-inf) [19]: 729 ng·h/mL
bioavailability [20]: 6.3%
Vd [21]: 2.23 L/kg
IC50 (HT-29): 387 nM
MRT last at 24 h [22]: 7.08 h
half-life [23]: 10 h
AUC(0-inf) [24]: 1470 ng·h/mL
clearance [25]: 11.3 mL/min/kg
microsomal CLint at 1 h, 1 µM (in vitro [8]): 147 µL/min/mg
CLint scaled at 1 h, 1 µM (in vitro [9]): 138 mL/min/kg

C[C@@H]1COCCN1c1nc(-c2cccc3[nH]ccc23)nc2c1CN(C(=O)c1ccc3c(c1)OCCO3)C2(C)C
IC50 (LoVo [3]): 147 nM
IC50 [2]: 4 nM
IC50 (HT-29): 487 nM

CC(C)C(=O)N1CCc2c(N3CCOC[C@H]3C)nc(-c3cccc4[nH]ccc34)nc2C1(C)C
IC50 (LoVo [3]): 1120 nM
half-life at 1 h, 1 µM (in vitro [4]): 0.047 h
microsomal CLint at 1 h, 1 µM (in vitro [5]): 129 µL/min/mg
CLint scaled at 1 h, 1 µM (in vitro [6]): 466 mL/min/kg
half-life at 1 h, 1 µM (in vitro [7]): 0.182 h
IC50 [2]: 10 nM
IC50 (HT-29): 4310 nM
microsomal CLint at 1 h, 1 µM (in vitro [8]): 493 µL/min/mg
CLint scaled at 1 h, 1 µM (in vitro [9]): 232 mL/min/kg

C[C@@H]1COCCN1c1nc(-c2cccc3[nH]ccc23)nc2c1CN(C(=O)c1ccc(OC(F)F)cc1)C2(C)C
Activity (LoVo [1]): <45%
IC50 [2]: 5 nM

CC(=O)N1CCc2nc(-c3cccc4[nH]ccc34)nc(N3CCOC[C@H]3C)c2C1
IC50 [2]: > 100 nM

C[C@@H]1COCCN1c1nc(-c2cccc3[nH]ccc23)nc2c1CN(C(=O)C(C)(C)C)C2(C)C
Activity (LoVo [1]): <45%
IC50 [2]: 12 nM

CC(C)C(=O)N1CCc2nc(-c3cccc4[nH]ccc34)nc(N3CCOC[C@H]3C)c2C1
IC50 [2]: > 100 nM

COc1cccc(C(=O)N2CCc3c(nc(-c4cccc5[nH]ccc45)nc3N3CCOC[C@H]3C)C2)c1
IC50 [2]: 76 nM

C[C@@H]1COCCN1c1nc(-c2cccc3[nH]ccc23)nc2c1CCN(C(=O)Cc1ccccc1)C2(C)C
IC50 [2]: 22 nM

CC(C)C(=O)N1Cc2c(N3CCOC[C@H]3C)nc(-c3cccc4[nH]ccc34)nc2C1(C)C
Activity (LoVo [1]): <45%
IC50 [2]: 8 nM

CC(=O)N1CCc2c(N3CCOC[C@H]3C)nc(-c3cccc4[nH]ccc34)nc2C12CCC2
IC50 [2]: 35 nM

C[C@@H]1COCCN1c1nc(-c2cccc3[nH]ccc23)nc2c1CCN(C(=O)Cc1cccs1)C2(C)C
IC50 [2]: 9 nM

COc1ccc(C(=O)N2CCc3c(N4CCOC[C@H]4C)nc(-c4cccc5[nH]ccc45)nc3C2(C)C)cc1
IC50 [2]: 9 nM

C[C@@H]1COCCN1c1nc(-c2cccc3[nH]ccc23)nc2c1CN(C(=O)c1ccc(OC(F)(F)F)cc1)C2(C)C
IC50 [2]: 42 nM

CCC(=O)N1CCc2c(N3CCOC[C@H]3C)nc(-c3cccc4[nH]ccc34)nc2C1(C)C
IC50 (LoVo [3]): 779 nM
half-life at 1 h, 1 µM (in vitro [4]): 0.112 h
microsomal CLint at 1 h, 1 µM (in vitro [5]): 98.8 µL/min/mg
CLint scaled at 1 h, 1 µM (in vitro [6]): 195 mL/min/kg
half-life at 1 h, 1 µM (in vitro [7]): 0.233 h
IC50 [2]: 9 nM
IC50 (HT-29): 2470 nM
microsomal CLint at 1 h, 1 µM (in vitro [8]): 207 µL/min/mg
CLint scaled at 1 h, 1 µM (in vitro [9]): 178 mL/min/kg
